Experimental data: patent US11572590B2, “Methods for evaluating tumor cell spheroids using 3D microfluidic cell culture device” (Dana-Farber Cancer Institute, Inc., priority 2017, dated 2023)
Read-outs that look alike come from different tables or passages of the source.

What was measured:
TBK1 = target: T1, TBK1 (Homo sapiens, UniProt Q9UHD2); assay: SelectScreen Kinase Profiling, IC50 for TBK1; format: biochemical; details: ATP Km app, ZLYTE; for inhibition: TBK1
T1 sequence (Q9UHD2 1-729): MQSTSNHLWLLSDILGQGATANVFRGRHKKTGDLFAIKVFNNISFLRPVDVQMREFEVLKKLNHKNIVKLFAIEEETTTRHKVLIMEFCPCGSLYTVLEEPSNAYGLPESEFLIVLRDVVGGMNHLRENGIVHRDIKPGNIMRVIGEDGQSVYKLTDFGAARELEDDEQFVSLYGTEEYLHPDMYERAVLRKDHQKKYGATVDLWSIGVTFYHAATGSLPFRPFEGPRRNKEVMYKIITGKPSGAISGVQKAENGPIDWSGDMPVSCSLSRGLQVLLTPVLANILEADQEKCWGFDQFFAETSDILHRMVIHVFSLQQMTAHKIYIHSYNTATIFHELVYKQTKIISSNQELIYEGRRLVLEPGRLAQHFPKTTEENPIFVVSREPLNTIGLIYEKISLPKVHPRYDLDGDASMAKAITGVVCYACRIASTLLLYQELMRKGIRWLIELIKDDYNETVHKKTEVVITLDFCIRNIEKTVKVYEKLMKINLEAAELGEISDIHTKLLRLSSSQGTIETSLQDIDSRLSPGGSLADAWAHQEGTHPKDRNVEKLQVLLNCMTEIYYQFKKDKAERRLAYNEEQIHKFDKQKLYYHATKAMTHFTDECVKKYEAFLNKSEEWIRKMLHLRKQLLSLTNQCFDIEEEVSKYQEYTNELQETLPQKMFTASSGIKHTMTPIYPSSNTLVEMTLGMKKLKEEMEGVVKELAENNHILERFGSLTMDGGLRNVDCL
Method: Biochemical single point inhibition and IC50 concentrations for TBK1, IKKε (IKBKE), and off-target kinases were determined at ThermoFisher Scientific using SelectScreen Kinase Profiling Services (Madison, Wis., USA) (Tables S4A and S4B-1-7). To determine cellular potency, the human colorectal cancer carcinoma cell line HCT116 (ATCC, Manassas, Va.) was maintained in T175 flasks in complete RPMI medium; RPMI 1640 supplemented with 10% FBS, 1× Penicillin-Streptomycin solution and 1×MEM (non-essential amino acids). HCT116 cells were grown to 90-95% confluency in T175 flasks containing complete RPMI medium and transfected in bulk using Lipofectamine 2000 (Invitrogen, Carlsbad, Calif.) with 70 μg of ISG54-luciferase reporter plasmid (Elim Biopharmaceuticals Inc., Hayward, Calif.). The reporter plasmid contains a luciferase gene expression cassette under the transcriptional regulation of the promoter of the human interferon stimulated gene 54 (ISG54). Transfection of the cells was allowed to take place for 6 hours, after which the cells were harvested by treatment with 0.25% trypsin EDTA (Corning Inc., Corning, N.Y.). Trypsinized cells were added to 384-well poly-d-lysine treated black clear bottom tissue culture assay plates (Greiner Bio-One GmbH, Kremsmünster, Austria) at a density of 20,000 cells/well in 80 μL of complete RPMI medium and incubated overnight. After 16-18 hours post-transfection, the assay plates were washed with PBS (Corning Inc., Corning, N.Y.), followed by addition of 80 μL/well of serum-free RPMI 1640 medium containing 1× Penicillin-Streptomycin solution, 1×MEM and 350 nL of DMSO or titrations of Compound 1. Compound 1 titrations were generated by 1.5-fold dilution steps in two overlapping serial dilution series to generate a 40-point compound dose range. After incubation at 37° C. for 1 hour, the cells were stimulated with Poly(I:C) (InvivoGen, San Diego, Calif.) at a final concentration of 15 μg/mL in Optimem media (Life Technologies, Rockville, Md.). The assay plates were incubated for 5 hours at 37° C., followed by addition of One-Glo luciferase firefly reagent (Promega, Madison, Wis.) at 1:1 volume/well and luminescence was measured in an EnVision Multilabel Plate Reader (PerkinElmer, Santa Clara, Calif.). The EC50 values were calculated from the fit of the dose-response curves to a four-parameter equation. All EC50 values represent geometric mean values of a minimum of four determinations.

CT26 allograft = assay: CT26 allograft, Compound 1 and anti-PD-L1 combination in vivo; set-up: species or system mouse; details: Compound 1 40 mg/kg oral gavage daily + anti-PD-L1 10 mg/kg every 5 days
Method: (§1) Combination studies were performed by vivoPharm (Hummelstown, Pa., USA). All procedures used in the performance of these studies were carried out in accordance with vivoPharm's Standard Operating Procedures, with particular reference to US_SOPvP_EF0314 “General Procedures for Efficacy Studies.” CT26 colon carcinoma cells (1×10^6 cells/mouse in 100 μL, passage 2-3) were re-suspended in serum-free DMEM and implanted in the upper right flank of 11-12 week old female Balb/c mice (Charles River Laboratories). Mice were randomized into four groups of 10 using a matched pair distribution method based on tumor size for CT26. Treatment was initiated 12 days post-inoculation with mean tumor volume at start of dosing of 125.85 mm^3. Vehicle or Compound 1 (40 mg/kg) was administered by oral gavage daily for 26 days and isotype control or a reverse chimera anti-PD-L1 cloned from literature reports (e.g., Deng, R. et al. MAbs (2016), the content of which is incorporated herein by reference in entirety) and placed into a mouse IgG1 framework (10 mg/kg) was administered every 5 days for a total of six doses. Investigators were not blinded to treatment groups. […] Mice were sacrificed on Day 13 and lung metastases were quantified (small ≤1 mm, medium >1 mm and ≤3 mm, large >3 mm). No large lung metastases were detected.

CT26 and EMT6 cells = assay: Re-implantation of CT26 and EMT6 cells into mice with exceptional responses (immunologic memory); format: in vivo, mouse; details: previous αPD-L1 + Compound 1
Method: as §1

N#Cc1cc(-c2ncnc(Nc3ccc(N4CCN(C5COC5)CC4)cc3)n2)ccc1OC1CCOCC1 [Compound 1, 5-(4-((4-(4-(oxetan-3-yl)piperazin-1-yl)phenyl)amino)-1,3,5-triazin-2-yl)-2-((tetrahydro-2H-pyran-4-yl)oxy)benzonitrile]
inhibition (TBK1; read-out: % Inhibition 1): 91%
inhibition (TBK1; read-out: % Inhibition 2): 99%
inhibition (TBK1; read-out: % Inhibition Avg): 95%
Hillslope (TBK1): 1.12
IC50 (TBK1): 1.04 nM
fold selectivity (IKBKE) (TBK1; IC50 relative to IKBKE IC50): 0.2 fold
fold selectivity (TBK1) (TBK1; IC50 relative to TBK1 IC50): 1.0 fold
survival, CT26 allograft, combination vs Cmpd1 or anti-PD-L1 alone (CT26 allograft): longer survival
tumour control, CT26 allograft, combination vs Cmpd1 or anti-PD-L1 alone (CT26 allograft): greater tumour control
growth of reimplanted CT26 in mice with exceptional responses to combination therapy (CT26 and EMT6 cells): no growth
